Experimental data published in ChEMBL document CHEMBL5465560, “Selectivity Literature for EUbOPEN Chemogenomic Library” (2024).

Columns and labels:
[1] = target: T1, Serine/threonine-protein kinase Nek2 (Homo sapiens) (UniProt P51955); assay: Selectivity interaction (Kinase panel (DSF assay)) EUB0001558a NEK2
T1 sequence (whole entry): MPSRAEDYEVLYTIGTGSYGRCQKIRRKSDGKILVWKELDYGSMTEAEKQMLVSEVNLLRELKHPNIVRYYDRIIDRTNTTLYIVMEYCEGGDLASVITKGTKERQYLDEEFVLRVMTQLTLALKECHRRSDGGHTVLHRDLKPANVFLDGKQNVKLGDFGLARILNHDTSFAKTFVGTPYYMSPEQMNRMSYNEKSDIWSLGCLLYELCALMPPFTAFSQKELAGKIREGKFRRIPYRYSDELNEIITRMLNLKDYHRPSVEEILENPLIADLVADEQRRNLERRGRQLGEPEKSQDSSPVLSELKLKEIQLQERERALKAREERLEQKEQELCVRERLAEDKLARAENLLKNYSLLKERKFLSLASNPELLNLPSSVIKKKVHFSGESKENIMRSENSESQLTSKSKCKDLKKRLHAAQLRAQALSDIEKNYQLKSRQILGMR

[2] = target: Bone morphogenetic protein receptor type-1A (Homo sapiens, UniProt P36894); assay: Selectivity interaction (LanthaScreen Eu Kinase Binding Assay) EUB0001632a BMPR1A; conditions: at 10 µM
Sequence of Bone morphogenetic protein receptor type-1A (P36894 whole entry): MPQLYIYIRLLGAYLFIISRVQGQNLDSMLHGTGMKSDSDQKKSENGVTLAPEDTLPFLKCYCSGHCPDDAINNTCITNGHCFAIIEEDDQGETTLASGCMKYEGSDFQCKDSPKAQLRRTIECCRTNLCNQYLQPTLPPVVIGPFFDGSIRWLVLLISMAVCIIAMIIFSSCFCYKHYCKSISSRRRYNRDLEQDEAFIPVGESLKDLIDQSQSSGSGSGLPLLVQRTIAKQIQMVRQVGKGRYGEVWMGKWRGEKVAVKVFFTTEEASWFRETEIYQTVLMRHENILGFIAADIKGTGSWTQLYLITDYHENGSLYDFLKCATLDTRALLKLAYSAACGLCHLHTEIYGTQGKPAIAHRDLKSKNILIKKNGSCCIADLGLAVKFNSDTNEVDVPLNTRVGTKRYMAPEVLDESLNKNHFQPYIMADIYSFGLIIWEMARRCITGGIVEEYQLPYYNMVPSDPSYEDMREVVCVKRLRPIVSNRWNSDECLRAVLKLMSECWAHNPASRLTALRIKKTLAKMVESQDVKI

[3] = target: T2, Protein kinase C zeta type (Homo sapiens) (UniProt Q05513); assay: Selectivity interaction (ActivX KiNativ screen (kinase selectivity in THP-1 cell lysates)) EUB0000639a PRKCZ; type: subcellular; conditions: lysate
T2 sequence (whole entry): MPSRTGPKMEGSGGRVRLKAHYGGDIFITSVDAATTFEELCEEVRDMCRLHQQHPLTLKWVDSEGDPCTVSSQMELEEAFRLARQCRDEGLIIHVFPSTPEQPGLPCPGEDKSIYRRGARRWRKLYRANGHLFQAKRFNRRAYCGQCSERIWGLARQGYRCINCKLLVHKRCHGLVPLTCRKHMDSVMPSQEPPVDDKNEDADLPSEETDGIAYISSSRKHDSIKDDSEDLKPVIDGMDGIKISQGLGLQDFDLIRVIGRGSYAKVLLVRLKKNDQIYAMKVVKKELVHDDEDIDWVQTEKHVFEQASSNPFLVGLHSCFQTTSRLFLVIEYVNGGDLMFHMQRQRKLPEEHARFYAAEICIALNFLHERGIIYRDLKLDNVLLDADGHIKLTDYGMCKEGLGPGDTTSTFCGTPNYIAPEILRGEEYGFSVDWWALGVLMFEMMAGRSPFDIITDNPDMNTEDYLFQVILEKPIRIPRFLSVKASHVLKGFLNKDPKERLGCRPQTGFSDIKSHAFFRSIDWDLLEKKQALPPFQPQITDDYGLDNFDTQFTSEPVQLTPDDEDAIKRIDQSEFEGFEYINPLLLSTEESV

[4] = target: T3, Inhibitor of nuclear factor kappa-B kinase subunit beta (Homo sapiens) (UniProt O14920); assay: Selectivity interaction (SelectScreen profiling (Invitrogen)) EUB0000607a IKBKB; conditions: at 2 µM
T3 sequence (whole entry): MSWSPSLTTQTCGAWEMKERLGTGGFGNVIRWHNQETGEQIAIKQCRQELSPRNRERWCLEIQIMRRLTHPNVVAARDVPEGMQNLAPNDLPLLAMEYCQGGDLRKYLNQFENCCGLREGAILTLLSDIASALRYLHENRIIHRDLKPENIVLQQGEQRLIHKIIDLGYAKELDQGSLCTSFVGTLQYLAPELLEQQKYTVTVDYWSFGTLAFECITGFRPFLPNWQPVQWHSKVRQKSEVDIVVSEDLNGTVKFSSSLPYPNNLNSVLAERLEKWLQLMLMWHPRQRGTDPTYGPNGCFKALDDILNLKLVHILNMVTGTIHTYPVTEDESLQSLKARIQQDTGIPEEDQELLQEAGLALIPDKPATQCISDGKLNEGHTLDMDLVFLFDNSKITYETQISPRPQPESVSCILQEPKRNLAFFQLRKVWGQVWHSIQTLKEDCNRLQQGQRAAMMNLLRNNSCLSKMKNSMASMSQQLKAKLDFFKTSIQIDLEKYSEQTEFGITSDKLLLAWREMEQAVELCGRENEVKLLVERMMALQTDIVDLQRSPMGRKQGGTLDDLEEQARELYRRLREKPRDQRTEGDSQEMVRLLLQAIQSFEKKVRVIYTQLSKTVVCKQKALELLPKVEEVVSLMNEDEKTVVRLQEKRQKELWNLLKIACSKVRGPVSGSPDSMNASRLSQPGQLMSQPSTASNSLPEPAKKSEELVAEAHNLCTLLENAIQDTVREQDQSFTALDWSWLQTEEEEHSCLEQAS

[5] = target: Serine/threonine-protein kinase Nek4 (Homo sapiens) (UniProt P51957); assay: Selectivity interaction (KinomeScan (DiscoverX)) EUB0001049a NEK4; conditions: at 1 µM
Sequence of Serine/threonine-protein kinase Nek4 (Homo sapiens) (P51957 whole entry, looked up): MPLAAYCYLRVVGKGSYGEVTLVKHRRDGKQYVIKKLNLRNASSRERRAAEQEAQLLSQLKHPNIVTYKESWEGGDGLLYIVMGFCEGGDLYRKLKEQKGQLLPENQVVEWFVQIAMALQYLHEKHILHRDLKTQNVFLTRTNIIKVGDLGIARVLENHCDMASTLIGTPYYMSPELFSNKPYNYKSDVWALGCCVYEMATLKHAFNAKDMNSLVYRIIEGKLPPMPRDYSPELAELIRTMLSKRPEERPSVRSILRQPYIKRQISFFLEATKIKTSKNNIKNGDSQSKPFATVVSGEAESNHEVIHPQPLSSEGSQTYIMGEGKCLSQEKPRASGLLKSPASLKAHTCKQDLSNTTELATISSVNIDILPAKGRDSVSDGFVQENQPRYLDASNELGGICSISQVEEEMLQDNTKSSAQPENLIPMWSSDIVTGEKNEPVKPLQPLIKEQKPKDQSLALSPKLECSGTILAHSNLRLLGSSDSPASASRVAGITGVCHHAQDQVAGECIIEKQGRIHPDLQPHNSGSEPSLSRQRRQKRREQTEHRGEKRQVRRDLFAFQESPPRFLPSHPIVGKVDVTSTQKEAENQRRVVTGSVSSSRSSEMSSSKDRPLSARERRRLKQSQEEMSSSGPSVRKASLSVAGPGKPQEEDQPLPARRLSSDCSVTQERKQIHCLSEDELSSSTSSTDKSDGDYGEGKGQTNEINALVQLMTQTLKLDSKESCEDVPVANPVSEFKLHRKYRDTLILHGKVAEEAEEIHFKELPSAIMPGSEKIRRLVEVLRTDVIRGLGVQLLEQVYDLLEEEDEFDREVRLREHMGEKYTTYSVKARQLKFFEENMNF

[6] = target: T4, Cytoplasmic tyrosine-protein kinase BMX (Homo sapiens) (UniProt P51813); assay: Selectivity interaction (KinomeScan (DiscoverX)) EUB0000045b BMX
T4 sequence (whole entry): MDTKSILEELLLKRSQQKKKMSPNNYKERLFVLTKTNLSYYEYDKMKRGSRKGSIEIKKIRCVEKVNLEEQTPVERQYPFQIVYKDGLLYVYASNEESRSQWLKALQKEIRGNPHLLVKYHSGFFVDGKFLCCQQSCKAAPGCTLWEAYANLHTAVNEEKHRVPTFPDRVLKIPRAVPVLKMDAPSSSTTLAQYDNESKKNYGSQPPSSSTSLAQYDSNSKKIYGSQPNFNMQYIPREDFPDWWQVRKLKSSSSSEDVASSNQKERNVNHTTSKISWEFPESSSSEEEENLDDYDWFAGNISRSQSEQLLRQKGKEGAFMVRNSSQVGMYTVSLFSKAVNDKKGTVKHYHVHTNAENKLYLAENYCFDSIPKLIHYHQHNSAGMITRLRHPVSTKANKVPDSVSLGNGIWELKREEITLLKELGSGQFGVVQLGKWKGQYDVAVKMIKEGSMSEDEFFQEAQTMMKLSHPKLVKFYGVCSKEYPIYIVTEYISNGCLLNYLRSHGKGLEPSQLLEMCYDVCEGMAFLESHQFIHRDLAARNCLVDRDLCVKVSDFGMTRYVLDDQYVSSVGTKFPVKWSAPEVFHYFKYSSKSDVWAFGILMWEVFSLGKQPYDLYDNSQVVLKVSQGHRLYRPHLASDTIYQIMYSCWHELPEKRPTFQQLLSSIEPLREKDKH

[7] = target: Insulin-like growth factor 1 receptor (Homo sapiens, UniProt P08069); assay: Selectivity interaction (Kinase screening (Nanosyn)) EUB0000604a IGF1R
Sequence of Insulin-like growth factor 1 receptor (P08069 31-736 limits assumed): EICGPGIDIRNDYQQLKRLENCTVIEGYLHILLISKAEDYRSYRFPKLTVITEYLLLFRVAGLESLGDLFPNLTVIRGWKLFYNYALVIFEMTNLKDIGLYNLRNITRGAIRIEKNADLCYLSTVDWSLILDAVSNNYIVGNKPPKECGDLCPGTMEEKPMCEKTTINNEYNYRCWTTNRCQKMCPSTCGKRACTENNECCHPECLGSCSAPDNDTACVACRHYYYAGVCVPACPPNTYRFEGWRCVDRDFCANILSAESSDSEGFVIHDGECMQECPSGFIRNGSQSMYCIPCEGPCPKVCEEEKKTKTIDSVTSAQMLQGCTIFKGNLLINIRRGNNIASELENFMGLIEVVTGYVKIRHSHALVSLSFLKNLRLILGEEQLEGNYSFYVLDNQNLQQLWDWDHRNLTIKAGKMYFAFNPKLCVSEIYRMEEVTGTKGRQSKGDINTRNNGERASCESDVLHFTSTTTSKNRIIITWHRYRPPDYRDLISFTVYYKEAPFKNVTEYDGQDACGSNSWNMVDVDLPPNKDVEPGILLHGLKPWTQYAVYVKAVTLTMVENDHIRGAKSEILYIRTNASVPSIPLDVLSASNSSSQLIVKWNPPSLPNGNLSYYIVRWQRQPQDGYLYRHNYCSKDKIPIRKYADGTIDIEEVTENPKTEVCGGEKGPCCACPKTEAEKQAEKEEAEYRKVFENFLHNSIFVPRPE
Sequence of Insulin-like growth factor 1 receptor (P08069 741-1367 limits assumed): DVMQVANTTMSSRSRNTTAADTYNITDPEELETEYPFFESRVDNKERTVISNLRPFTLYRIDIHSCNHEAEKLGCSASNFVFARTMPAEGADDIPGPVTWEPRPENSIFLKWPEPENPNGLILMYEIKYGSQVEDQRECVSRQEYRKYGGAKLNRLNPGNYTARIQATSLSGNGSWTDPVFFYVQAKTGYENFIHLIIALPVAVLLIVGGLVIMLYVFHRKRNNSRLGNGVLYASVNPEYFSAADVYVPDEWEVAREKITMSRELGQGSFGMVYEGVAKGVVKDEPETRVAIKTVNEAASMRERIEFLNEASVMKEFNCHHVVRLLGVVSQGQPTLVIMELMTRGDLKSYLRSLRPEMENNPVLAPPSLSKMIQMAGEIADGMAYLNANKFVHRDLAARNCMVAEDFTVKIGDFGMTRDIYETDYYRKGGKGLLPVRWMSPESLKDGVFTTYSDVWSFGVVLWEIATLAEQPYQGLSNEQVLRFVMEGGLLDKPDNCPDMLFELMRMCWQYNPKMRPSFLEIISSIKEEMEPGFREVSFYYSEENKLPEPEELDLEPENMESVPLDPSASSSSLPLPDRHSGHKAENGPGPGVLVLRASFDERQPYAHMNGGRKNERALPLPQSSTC

[8] = target: MAP kinase-interacting serine/threonine-protein kinase 1 (Homo sapiens) (UniProt Q9BUB5); assay: Selectivity interaction (KinomeScan (DiscoverX)) EUB0001619a MKNK1; conditions: at 1 µM
Sequence of MAP kinase-interacting serine/threonine-protein kinase 1 (Homo sapiens) (Q9BUB5 whole entry, looked up): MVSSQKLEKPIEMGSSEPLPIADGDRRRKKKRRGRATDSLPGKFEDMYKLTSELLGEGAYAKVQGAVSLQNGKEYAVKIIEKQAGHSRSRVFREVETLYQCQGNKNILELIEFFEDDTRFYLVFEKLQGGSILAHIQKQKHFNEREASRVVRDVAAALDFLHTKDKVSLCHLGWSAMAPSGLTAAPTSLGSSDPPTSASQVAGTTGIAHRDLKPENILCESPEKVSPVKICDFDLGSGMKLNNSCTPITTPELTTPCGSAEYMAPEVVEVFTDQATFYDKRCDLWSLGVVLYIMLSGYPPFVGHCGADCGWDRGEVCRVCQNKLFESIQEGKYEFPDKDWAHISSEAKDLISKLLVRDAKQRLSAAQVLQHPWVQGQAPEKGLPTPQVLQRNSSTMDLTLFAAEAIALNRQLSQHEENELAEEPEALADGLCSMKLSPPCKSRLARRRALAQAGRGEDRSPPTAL

CC(C)(O)[C@H](F)CN1Cc2cc(NC(=O)c3cnn4cccnc34)c(N3CCOCC3)cc2C1=O
dTM [1]: 0.4 K

Cn1cc(-n2cnc3c(NCc4nc5cc(Cl)c(Cl)cc5[nH]4)nc(N4CCOCC4)nc32)cn1
% of inhibition [2]: -8.67%

CC[C@@H]1[C@H](F)C(=O)N[C@@H]1COc1nccc2cc(C(N)=O)c(OC)cc12 [ZIMLOVISERTIB]
% of inhibition ([3]; at 0.01 µM): 8.5%
% of inhibition ([3]; at 0.04 µM): -2.3%
% of inhibition ([3]; at 0.2 µM): -7.6%
% of inhibition ([3]; at 1 µM): 6.9%
% of inhibition ([3]; at 5 µM): -26.2%

CNC(=O)Nc1ccc(-c2nc(N3CC4CCC(C3)O4)c3cnn(C4CCC5(CC4)OCCO5)c3n2)cc1
% of inhibition [4]: -5%

COc1cc(Nc2nc(C)cc(-c3cnn4nc(OC)ccc34)n2)cc(C(F)(F)F)c1
% of control [5]: 90%

C=CC(=O)Nc1cc(-n2c(=O)ccc3cnc4ccc(-c5ccc(NS(C)(=O)=O)cc5)cc4c32)ccc1C
% of control ([6]; at 1 µM): 29%
% of control ([6]; at 10 µM): 6%

Cc1cnc(Nc2ccc(F)cc2Cl)nc1-c1c[nH]c(C(=O)N[C@H](CO)c2cccc(Cl)c2)c1
% of inhibition [7]: 2%

N#Cc1cccc(-c2c[nH]c3ncnc(N4CCOCC4)c23)c1
% of control [8]: 100%
